Measured values reported in patent US4849345A, “L-phenylalanine dehydrogenase and use thereof” (priority 1985, dated 1989).

Assays:
[1] = molecular target: T1, L-phenylalanine dehydrogenase produced by Bacillus sp. SCRC-R79a (Lysinibacillus sphaericus, UniProt P23307); assay: Substrate and coenzyme specificity, oxidative deamination (Bacillus enzyme); assay type: biochemical; set-up: inoculated with Bacillus sp; endogenous in cells; host or cells: Bacillus sp; enzyme purified in house; conditions: coenzyme
T1 sequence (P23307 1-381): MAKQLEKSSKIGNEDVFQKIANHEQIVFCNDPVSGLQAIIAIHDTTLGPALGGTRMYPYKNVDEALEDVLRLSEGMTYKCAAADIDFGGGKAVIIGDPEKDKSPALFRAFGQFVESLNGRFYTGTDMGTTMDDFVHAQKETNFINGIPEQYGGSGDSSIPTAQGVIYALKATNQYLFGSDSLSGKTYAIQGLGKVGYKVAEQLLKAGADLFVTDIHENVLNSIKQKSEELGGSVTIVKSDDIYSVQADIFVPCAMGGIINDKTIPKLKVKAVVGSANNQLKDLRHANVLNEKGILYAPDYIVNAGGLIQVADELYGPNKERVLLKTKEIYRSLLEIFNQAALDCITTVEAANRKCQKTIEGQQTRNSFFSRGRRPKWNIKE
Procedure: The substrate concentration is 10 mM except for the L-tyrosine concentration which is 1.4 mM.

[2] = molecular target: T2, L-phenylalanine dehydrogenase produced by Sporosarcina ureae SCRC-R04 (Sporosarcina ureae, UniProt P97014); assay: Substrate and coenzyme specificity, oxidative deamination (Sporosarcina enzyme); assay type: biochemical; conditions: coenzyme
T2 sequence (P97014 1-379): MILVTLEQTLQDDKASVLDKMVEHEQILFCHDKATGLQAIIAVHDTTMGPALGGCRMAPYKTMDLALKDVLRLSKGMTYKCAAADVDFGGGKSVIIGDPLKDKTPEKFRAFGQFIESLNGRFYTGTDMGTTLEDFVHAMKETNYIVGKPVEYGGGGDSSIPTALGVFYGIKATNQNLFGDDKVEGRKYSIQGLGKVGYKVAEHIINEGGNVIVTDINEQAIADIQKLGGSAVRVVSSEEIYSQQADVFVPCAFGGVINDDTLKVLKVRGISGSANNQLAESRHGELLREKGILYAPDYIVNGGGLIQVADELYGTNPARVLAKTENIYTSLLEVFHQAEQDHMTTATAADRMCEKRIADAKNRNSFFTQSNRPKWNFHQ
Procedure: The substrate concentration is 10 mM, except for the L-tyrosine concentration which is 1.4 mM.

[3] = molecular target: T1, L-phenylalanine dehydrogenase produced by Bacillus sp. SCRC-R79a; conditions: pH 9.0; phenylpyruvate to L-phenylalanine as 100%

| relative rate of converting the α-keto acid to the L-amino acid [3] | SMILES | activity relative to NAD^+ as coenzyme [1] | activity relative to NAD^+ as coenzyme [2] |
| --- | --- | --- | --- |
|  | NC(=O)c1ccc[n+]([C@@H]2O[C@H](COP(=O)([O-])OP(=O)(O)OC[C@H]3O[C@@H](n4cnc5c(N)ncnc54)[C@H](OP(=O)(O)O)[C@@H]3O)[C@@H](O)[C@H]2O)c1 [NADP^+] | ~2.9% | about 3.9% |
| 100% | O=C(O)C(=O)Cc1ccccc1 [phenylpyruvate] |  |  |
